# Test results: article PMC9248904, “Genomic and Chemical Decryption of the Bacteroidetes Phylum for Its Potential to Biosynthesize Natural Products” (Microbiology Spectrum, 2022)
# Where two headings read alike, the source gives them in different places.
# Experiments:
# [1] = tested on: Aspergillus flavus ATCC 9170; experiment: microbe, parasite or virus in culture; format: cell-based; details: A. flavus ATCC 9170, MHIIB, 37°C, 100,000 spores/mL, BacTiter-Glo, Iron -, at least triplicate
# Experimental: (§1) The MIC was determined by broth microdilution method in 96-well plates with 100 µL assay volume per well following EUCAST instructions ([116], [117]) for E. coli ATCC 35218, E. coli ATCC 25922 ΔTolC, E. coli MG1655, Pseudomonas aeruginosa ATCC 27853, P. aeruginosa PAO750, Klebsiella pneumoniae ATCC 13883, Moraxella catarrhalis ATCC 25238, Acinetobacter baumannii ATCC 19606, Bacillus subtilis DSM 10, Staphylococcus aureus ATCC 25923, and Micrococcus luteus DSM 20030. Listeria monocytogenes DSM 20600 (1 day of incubation at 37°C) and Mycobacterium smegmatis ATCC 607 (2 days of incubation at 37°C) were grown in BHI broth supplemented with 1% (vol/vol) Tween 80. Candida albicans FH2173 was grown in MHIIB over 2 days of incubation at 37°C (pre-culture 2 days at 28°C). Approximate inoculation cell density for all strains was 500,000 CFU/mL, except 1,000,000 CFU/mL were used for M. smegmatis and C. albicans. For all fungal screenings 100,000 spores/mL were used and incubated at 37°C for Aspergillus flavus ATCC 9170 (MHIIB) and 25°C for Z. tritici MUCL45407 (4 g/L yeast extract, 4 g/L malt extract, 4 g/L sucrose) and Fusarium oxysporum ATCC 7601 (potato dextrose broth, Sigma). Growth inhibition was detected by optical density (600 nm) or for M. luteus, L. monocytogenes, C. albicans, M. smegmatis, and all fungi by quantification of free ATP using BacTiter-Glo after 24 to 48 h (72 h for Z. tritici). All MIC assays were performed at least in triplicate. FE(III)-citrate was added at molar ratios of 1:1 to samples in DMSO to test compounds in their iron bound conformation.
# [2] = tested on: Candida albicans FH2173; experiment: microbe, parasite or virus in culture; format: cell-based; details: C. albicans FH2173, MHIIB, 2 days 37°C, BacTiter-Glo, Iron -, at least triplicate
# Experimental: as §1
# [3] = tested on: Fusarium oxysporum ATCC 7601; experiment: microbe, parasite or virus in culture; format: cell-based; details: F. oxysporum ATCC 7601, potato dextrose broth, 25°C, 100,000 spores/mL, BacTiter-Glo, Iron -, at least triplicate
# Experimental: as §1
# [4] = tested on: Z. tritici MUCL45407; experiment: microbe, parasite or virus in culture; format: cell-based; details: Z. tritici MUCL45407, 25°C, 72 h, 100,000 spores/mL, BacTiter-Glo, Iron -, at least triplicate
# Experimental: as §1
# [5] = tested on: E. coli ATCC 25922 ΔTolC; format: cell-based, Escherichia coli; details: broth microdilution, 96-well, EUCAST, OD600, Iron -, at least triplicate
# Experimental: as §1
# [6] = tested on: E. coli ATCC 35218; format: cell-based, Escherichia coli; details: E. coli ATCC 35218; broth microdilution, 96-well, EUCAST; OD600; chitinopeptins without iron (Iron -); at least triplicate
# Experimental: as §1
# [7] = tested on: Acinetobacter baumannii ATCC 19606; format: cell-based; details: A. baumannii ATCC 19606; broth microdilution, 96-well, EUCAST; OD600; Iron -; at least triplicate
# Experimental: as §1
# [8] = tested on: Bacillus subtilis DSM 10; format: cell-based; details: B. subtilis DSM 10; broth microdilution, 96-well, EUCAST; OD600; Iron -; at least triplicate
# Experimental: as §1
# [9] = tested on: Micrococcus luteus DSM 20030; format: cell-based; details: M. luteus DSM 20030; broth microdilution, 96-well; free ATP (BacTiter-Glo); Iron -; at least triplicate
# Experimental: as §1
# [10] = tested on: Moraxella catarrhalis ATCC 25238; format: cell-based; details: M. catarrhalis ATCC 25238; broth microdilution, 96-well, EUCAST; OD600; Iron -; at least triplicate
# Experimental: as §1
# [11] = tested on: Pseudomonas aeruginosa ATCC 27853; format: cell-based; details: P. aeruginosa ATCC 27853; broth microdilution, 96-well, EUCAST; OD600; Iron -; at least triplicate
# Experimental: as §1
# [12] = tested on: Staphylococcus aureus ATCC 25923; format: cell-based; details: S. aureus ATCC 25923; broth microdilution, 96-well, EUCAST; OD600; Iron -; at least triplicate
# Experimental: as §1
# [13] = tested on: Mycobacterium smegmatis ATCC 607; experiment: microbe, parasite or virus in culture; format: cell-based; details: M. smegmatis ATCC 607; BHI broth + 1% Tween 80, 2 days 37°C; BacTiter-Glo; Iron -; at least triplicate
# Experimental: as §1
# [14] = tested on: E. coli MG1655; format: cell-based, Escherichia coli; details: broth microdilution, 96-well, EUCAST, OD600, Iron -, at least triplicate
# Experimental: as §1
# [15] = tested on: P. aeruginosa PAO750; format: cell-based, Pseudomonas aeruginosa; details: broth microdilution, 96-well, EUCAST, OD600, Iron -, at least triplicate
# Experimental: as §1
# [16] = tested on: Klebsiella pneumoniae ATCC 13883; format: cell-based; details: K. pneumoniae ATCC 13883; broth microdilution, 96-well, EUCAST; OD600; Iron -; at least triplicate
# Experimental: as §1
# [17] = tested on: Listeria monocytogenes DSM 20600; format: cell-based; details: L. monocytogenes DSM 20600; BHI broth + 1% Tween 80, 1 day 37°C; BacTiter-Glo; Iron -; at least triplicate
# Experimental: as §1
Compound,MIC [5] [µg/mL],MIC [6] [µg/mL],MIC [7] [µg/mL],MIC [8] [µg/mL],MIC [9] [µg/mL],MIC [10] [µg/mL],MIC [11] [µg/mL],MIC [12] [µg/mL],MIC [1] [µg/mL],MIC [2] [µg/mL],MIC [3] [µg/mL],MIC [13] [µg/mL],MIC [14] [µg/mL],MIC [15] [µg/mL],MIC [16] [µg/mL],MIC [17] [µg/mL],further results
"CC(C)(C)C(O)(CCc1ccc(Cl)cc1)Cn1cncn1 (stereo not drawn) [Tebuconazole, reference compound]",–,–,–,–,–,–,–,–,–,–,–,–,–,–,–,–,"MIC ([1]; Aspergillus flavus, ATCC9170, read-out: MIC): 2 µg/mL; MIC ([2]; Candida albicans, 48 h, read-out: MIC): 2 µg/mL; MIC ([3]; Fusarium oxysporum, ATCC7601, read-out: MIC): > 64 µg/mL; MIC ([4]; Zymoseptoria tritici, read-out: MIC): 0.5 µg/mL"
Chitinopeptin C1+C2,> 64,> 64,16,4,32,2,> 64,> 64,64,16,> 64,> 64,–,–,–,–,MIC [4]: 16 µg/mL
Chitinopeptin D1+D2,> 64,> 64,16,4,32,2,> 64,> 64,64,16,> 64,> 64,–,–,–,–,–
Gentamycin [reference compound],0.25,0.125,16,≤ 0.031,≤ 0.031,0.125,1,0.063,–,–,–,–,0.5,0.125,≤ 0.031,≤ 0.031,–
Rifamicin [reference compound],2,4,2,≤ 0.031,≤ 0.031,≤ 0.031,32,≤ 0.031,–,–,–,8,16,16,8,≤ 0.031,–
